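Where inhibition never reached the appropriate level, the endpoint shown equals the highest concentration tested. Otherwise, values were interpolated linearly from a five-concentration, 48-hour dose response in 96-well plates. At the GI50, growth is halved.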 Active and inactive are the calls of the source. No stated cut-off is given here; in the data, active = GI50 up to about 1.1 µM and inactive = higher. Where a SMILES comes first, the peptide text is derived from it. [ ]: non-standard residue; d: D form. The star is where a group is joined. mTyr = N[CH](Cc1cccc(O)c1)C(=O)O; Cbz = O=C(OCc1ccccc1)*; OBn = c1ccc(CO*)cc1
Columns and labels:
Test in all cases: NCI anticancer screen, dose series, 48 h
SF-268 = test system: SF-268
HCT-116 = test system: HCT-116
A498 = test system: A498
COLO 205 = test system: COLO 205
CCRF-CEM = test system: CCRF-CEM
MCF7 = test system: MCF7
OVCAR-4 = test system: OVCAR-4
UACC-257 = test system: UACC-257
OVCAR-8 = test system: OVCAR-8
SF-295 = test system: SF-295
TK-10 = test system: TK-10
ACHN = test system: ACHN
EKVX = test system: EKVX
SNB-19 = test system: SNB-19
MDA-N = test system: MDA-N
UACC-62 = test system: UACC-62
HT-29 = test system: HT-29
U-251 = test system: U-251
K562 = test system: K562
NCI-H460 = test system: NCI-H460

Row | Compound | GI50 (SF-268) | GI50 (HCT-116) | GI50 (A498) | GI50 (COLO 205) | GI50 (CCRF-CEM) | GI50 (MCF7) | GI50 (OVCAR-4) | GI50 (UACC-257) | GI50 (OVCAR-8) | GI50 (SF-295) | GI50 (TK-10) | GI50 (ACHN) | GI50 (EKVX) | GI50 (SNB-19) | GI50 (MDA-N) | GI50 (UACC-62) | GI50 (HT-29) | GI50 (U-251) | GI50 (K562) | GI50 (NCI-H460)
1 | CCSCCCC(=O)O | > 100 µM (inactive) | > 100 µM (inactive) | > 100 µM (inactive) | > 100 µM (inactive) | > 100 µM (inactive) | > 100 µM (inactive) | > 100 µM (inactive) | > 100 µM (inactive) | > 100 µM (inactive) | > 100 µM (inactive) | > 100 µM (inactive) | > 100 µM (inactive) | > 100 µM (inactive) | > 100 µM (inactive) | > 100 µM (inactive) | > 100 µM (inactive) | > 100 µM (inactive) | > 100 µM (inactive) | > 100 µM (inactive) | 
2 | CN1CCN(CCCN)CC1 | > 100 µM (inactive) | > 100 µM (inactive) | > 100 µM (inactive) | > 100 µM (inactive) | > 100 µM (inactive) | > 100 µM (inactive) | > 100 µM (inactive) | > 100 µM (inactive) | > 100 µM (inactive) | > 100 µM (inactive) | > 100 µM (inactive) | > 100 µM (inactive) | > 100 µM (inactive) | > 100 µM (inactive) | > 100 µM (inactive) | > 100 µM (inactive) | > 100 µM (inactive) | > 100 µM (inactive) | > 100 µM (inactive) | 
3 | COC(=O)[C@@]1(C)CCC[C@]2(C(=O)O)C3Cc4occc4[C@H](C)[C@@H]3CCC21 (some centres undefined) | > 100 µM (inactive) | 35.2 µM (inactive) | 68.7 µM (inactive) |  | 22.3 µM (inactive) | > 10 µM (inactive) |  |  | 68.1 µM (inactive) | 33.6 µM (inactive) | 41 µM (inactive) | 44.2 µM (inactive) | 39.1 µM (inactive) | 71.1 µM (inactive) | 75.9 µM (inactive) | 62.5 µM (inactive) | 29 µM (inactive) | 31.1 µM (inactive) | 29.2 µM (inactive) | 33.8 µM (inactive)
4 | O=Cc1ccc2[nH]c(=O)oc2c1 | > 100 µM (inactive) | > 100 µM (inactive) | > 100 µM (inactive) | > 100 µM (inactive) | 42.3 µM (inactive) | > 100 µM (inactive) |  | > 100 µM (inactive) | > 100 µM (inactive) | > 100 µM (inactive) | > 100 µM (inactive) | > 100 µM (inactive) | > 100 µM (inactive) | > 100 µM (inactive) | > 100 µM (inactive) | > 100 µM (inactive) | > 100 µM (inactive) | 84.5 µM (inactive) | > 100 µM (inactive) | > 100 µM (inactive)
5 | CCOc1cnc(C(O)(c2ccccc2)c2ccccc2)o1 | > 100 µM (inactive) | > 100 µM (inactive) | > 100 µM (inactive) | > 100 µM (inactive) | > 100 µM (inactive) | > 100 µM (inactive) | > 100 µM (inactive) | > 100 µM (inactive) | > 100 µM (inactive) | > 100 µM (inactive) |  | > 100 µM (inactive) | > 100 µM (inactive) | > 100 µM (inactive) | > 100 µM (inactive) | > 100 µM (inactive) | > 100 µM (inactive) | > 100 µM (inactive) | > 100 µM (inactive) | > 100 µM (inactive)
6 | Nc1nc(S)nc2snnc12 | > 100 µM (inactive) | > 100 µM (inactive) | > 100 µM (inactive) | > 100 µM (inactive) | > 100 µM (inactive) | > 100 µM (inactive) |  | > 100 µM (inactive) | > 100 µM (inactive) | > 100 µM (inactive) | > 100 µM (inactive) | > 100 µM (inactive) |  | > 100 µM (inactive) | > 100 µM (inactive) | > 100 µM (inactive) | > 100 µM (inactive) | > 10 µM (inactive) | > 100 µM (inactive) | > 100 µM (inactive)
7 | CC(C)CCC/C(CBr)=C(\Cl)CCl | 3.55 µM (inactive) | 2.69 µM (inactive) | 20.7 µM (inactive) | 1.83 µM (inactive) | 0.123 µM (active) | 4.08 µM (inactive) | 1.48 µM (inactive) | 2.13 µM (inactive) | 1.56 µM (inactive) | 13.3 µM (inactive) | 1.88 µM (inactive) | 11.2 µM (inactive) | 16.6 µM (inactive) | 14.5 µM (inactive) | 1.83 µM (inactive) |  | 2.37 µM (inactive) | 4.04 µM (inactive) | 0.104 µM (active) | 5.05 µM (inactive)
8 | Cc1cc(-c2cscn2)c(O)c([N+](=O)[O-])c1 |  | 49.7 µM (inactive) | 28.7 µM (inactive) | 28.3 µM (inactive) | 41 µM (inactive) | 21.4 µM (inactive) | 82.6 µM (inactive) | 63.8 µM (inactive) | 48.3 µM (inactive) | 0.906 µM (active) | 52.7 µM (inactive) | 37.2 µM (inactive) | 65.8 µM (inactive) | > 100 µM (inactive) | 74.3 µM (inactive) | 62.7 µM (inactive) | 89.3 µM (inactive) |  | 34.2 µM (inactive) | 34.2 µM (inactive)
9 | O=C(O)CNn1c(SCC(=O)O)nnc(/C=C/c2c(O)ccc3ccccc23)c1=O | 24.4 µM (inactive) | 28.8 µM (inactive) | 32.7 µM (inactive) | 34.4 µM (inactive) | 3.57 µM (inactive) | 24 µM (inactive) | 14.1 µM (inactive) | 35.9 µM (inactive) | 3.79 µM (inactive) | 3.89 µM (inactive) |  | 33.8 µM (inactive) | 14.3 µM (inactive) | 64.7 µM (inactive) | 48.4 µM (inactive) | 21.3 µM (inactive) | 41.9 µM (inactive) | 35.3 µM (inactive) | 25.5 µM (inactive) | 4.91 µM (inactive)
10 | Cn1c2c(c3c(=O)[nH]ncc31)Cc1ccccc1-2 | 12 µM (inactive) | 3.64 µM (inactive) | 6.62 µM (inactive) | 10.9 µM (inactive) | 9.1 µM (inactive) | 11.5 µM (inactive) | 21.3 µM (inactive) | 10.8 µM (inactive) | 11.7 µM (inactive) | 4.33 µM (inactive) | 5.81 µM (inactive) | 5.07 µM (inactive) | 22.7 µM (inactive) | 18.2 µM (inactive) | 12.9 µM (inactive) |  | 9.64 µM (inactive) | 13.5 µM (inactive) | 18.2 µM (inactive) | 3.04 µM (inactive)
11 | CN(C)/C=N/c1ccc2c3c(cccc13)-c1ccccc1-2 | 12.5 µM (inactive) | 15.4 µM (inactive) | 10.1 µM (inactive) | 16.6 µM (inactive) | 2.23 µM (inactive) | 16.8 µM (inactive) | 15.7 µM (inactive) | 17.3 µM (inactive) | 14.6 µM (inactive) | 14.4 µM (inactive) | 13.8 µM (inactive) | 16 µM (inactive) | 10.5 µM (inactive) | 14.4 µM (inactive) | 14.5 µM (inactive) | 18.6 µM (inactive) | 10 µM (inactive) | 13.4 µM (inactive) | 10.2 µM (inactive) | 
12 | CCOC(=O)c1ccc(-n2cnc(-c3ccc([N+](=O)[O-])cc3)c2)cc1 | 56.2 µM (inactive) | 31.4 µM (inactive) | > 100 µM (inactive) | > 100 µM (inactive) | > 100 µM (inactive) | 72.9 µM (inactive) |  | > 100 µM (inactive) | > 100 µM (inactive) | > 100 µM (inactive) | 33.9 µM (inactive) | > 100 µM (inactive) | > 100 µM (inactive) | 35.7 µM (inactive) | > 100 µM (inactive) | > 100 µM (inactive) | > 100 µM (inactive) | 25.2 µM (inactive) | > 100 µM (inactive) | > 100 µM (inactive)
13 | CC(C)=CCNc1ncnc2c1ncn2CCC#N | > 100 µM (inactive) | > 100 µM (inactive) | > 100 µM (inactive) | > 100 µM (inactive) | > 100 µM (inactive) | > 100 µM (inactive) | 45.1 µM (inactive) |  | > 100 µM (inactive) | > 100 µM (inactive) | > 100 µM (inactive) | > 100 µM (inactive) |  | > 100 µM (inactive) | > 100 µM (inactive) | > 100 µM (inactive) | > 100 µM (inactive) | > 100 µM (inactive) | > 100 µM (inactive) | > 100 µM (inactive)
14 | COC(=O)C(Cc1cccc(O)c1)NC(=O)C(CC(=O)OCc1ccccc1)NC(=O)OCc1ccccc1 (centres undefined) (Cbz-Asp(OBn)-[mTyr]-OMe; configuration not given here) |  | > 100 µM (inactive) | > 100 µM (inactive) | > 100 µM (inactive) |  | > 100 µM (inactive) |  | > 100 µM (inactive) | > 100 µM (inactive) |  | > 100 µM (inactive) | 63.5 µM (inactive) | > 100 µM (inactive) | 65.8 µM (inactive) | > 100 µM (inactive) | 65.5 µM (inactive) | 88.5 µM (inactive) | > 100 µM (inactive) | > 100 µM (inactive) | 15.4 µM (inactive)
15 | CCOC(=O)N1CCC(=C2c3ccc(Cl)cc3CCc3cccnc32)CC1 [LORATADINE] |  | 11.2 µM (inactive) | 0.849 µM (active) | 9.14 µM (inactive) | 4.32 µM (inactive) | 7.4 µM (inactive) | 3.69 µM (inactive) | 15 µM (inactive) | 12.7 µM (inactive) |  | 13.2 µM (inactive) | 4.15 µM (inactive) | 13.9 µM (inactive) |  | 4.55 µM (inactive) | 4.73 µM (inactive) | 3.18 µM (inactive) |  | 6.12 µM (inactive) | 3.44 µM (inactive)

— ChEMBL document CHEMBL1201862, “PubChem BioAssay data set” (2004)
